Results published in the NIST ThermoML archive (doi:10.1016/j.jct.2010.12.028).

Tests used:
[1] = excess molar enthalpy (molar enthalpy of mixing); xn = mol fraction of the nth substance listed; details: 308.15 K, 101 kPa, Liquid, two-drop calorimeter
[2] = xn = mol fraction of the nth substance listed; details: 101 kPa, Liquid; for speed of sound: Sing-around technique in a fixed-path interferometer; for mass density: Vibrating tube method

Cc1ccccc1N [2-methylaniline] + c1ccncc1
[1]
Details	excess molar enthalpy [kcal/mol]
x1 = 0.0397	-0.052
x1 = 0.0728	-0.0894
x1 = 0.1263	-0.137
x1 = 0.1742	-0.171
x1 = 0.2163	-0.192
x1 = 0.2681	-0.213
x1 = 0.3192	-0.23
x1 = 0.3707	-0.24
x1 = 0.4212	-0.245
x1 = 0.4826	-0.247
x1 = 0.5261	-0.245
x1 = 0.5815	-0.241
x1 = 0.6327	-0.23
x1 = 0.7026	-0.213
x1 = 0.7735	-0.187
x1 = 0.8177	-0.165
x1 = 0.8802	-0.123
x1 = 0.9723	-0.0346

[2]
Details	mass density, 298.15 K [kg/m3]	mass density, 303.15 K [kg/m3]	mass density, 308.15 K [kg/m3]	speed of sound, 298.15 K [m/s]	speed of sound, 303.15 K [m/s]	speed of sound, 308.15 K [m/s]
x1 = 0.0652	980.854	975.904	970.897	1431.7	1411.5	1391.8
x1 = 0.1138	982.607	977.714	972.767	1442.1	1421.8	1402.4
x1 = 0.1277	–	978.889	–	–	–	–
x1 = 0.1477	983.731	–	973.991	1449.2	1429	1409.8
x1 = 0.1853	984.895	980.111	975.253	1457	1436.9	1417.8
x1 = 0.2374	986.375	981.65	976.858	1467.7	1447.7	1428.6
x1 = 0.2686	987.172	982.485	977.748	1474	1454	1435
x1 = 0.3005	987.937	983.289	978.587	1480.3	1460.4	1441.4
x1 = 0.3526	989.058	984.461	979.835	1490.5	1470.6	1451.7
x1 = 0.4104	990.119	985.592	981.051	1501.4	1481.7	1462.7
x1 = 0.4837	991.237	986.789	982.322	1514.8	1495.3	1476.3
x1 = 0.5238	991.751	987.335	982.917	1522	1502.6	1483.6
x1 = 0.5641	992.187	987.803	983.434	1529.1	1509.6	1490.6
x1 = 0.6231	992.73	988.386	984.067	1539.3	1519.7	1500.7
x1 = 0.6974	993.253	988.955	984.698	1551.7	1531.8	1513.1
x1 = 0.7678	993.622	989.362	985.142	1563.4	1542.9	1524.3
x1 = 0.8236	993.838	989.613	985.416	1572.5	1551.6	1532.9
x1 = 0.8622	993.969	989.756	985.573	1578.9	1557.4	1538.6
x1 = 0.9621	994.245	990.097	985.933	1595.9	1572.2	1553.2
